# Results published in ChEMBL document CHEMBL1201862, “PubChem BioAssay data set” (2004).
#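 The compound was tested at five concentrations on cells cultured in 96-well plates, with a 48-hour exposure period. The concentration for 50% growth inhibition is given as GI50.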 Calls of active or inactive are those of the source. No stated cut-off is given here; in the data, active = GI50 up to about 1.1 µM and inactive = higher.
# Experiments:
# Assay in all cases: growth of human tumour cells (NCI), 48 h
# [1] = test system: Hs-578T
# [2] = test system: HOP-92
# [3] = test system: MDA-N
# [4] = test system: OVCAR-5
# [5] = test system: IGROV-1
# [6] = test system: EKVX
# [7] = test system: HT-29
# [8] = test system: MDA-MB-231
# [9] = test system: Malme-3M
# [10] = test system: A498
# [11] = test system: MCF7
# [12] = test system: HCT-116
# [13] = test system: NCI/ADR-RES
# [14] = test system: UACC-62
# [15] = test system: UO-31
# [16] = test system: NCI-H23
# [17] = test system: ACHN
# [18] = test system: SN12C
# [19] = test system: OVCAR-4
# [20] = test system: M14
# [21] = test system: MOLT-4
# [22] = test system: CAKI-1
# [23] = test system: SF-295
# [24] = test system: OVCAR-8
# [25] = test system: T47D
# [26] = test system: HOP-62
# [27] = test system: NCI-H460
# [28] = test system: SNB-19
# [29] = test system: LOX IMVI
# [30] = test system: SF-268
# [31] = test system: A549
# [32] = test system: NCI-H226
# [33] = test system: KM12
# [34] = test system: RXF 393
# [35] = test system: SF-539
# [36] = test system: 786-0
# [37] = test system: PC-3
# [38] = test system: SK-MEL-2
# [39] = test system: NCI-H522
# [40] = test system: SK-MEL-5
# [41] = test system: TK-10
# [42] = test system: UACC-257
# [43] = test system: HCT-15
# [44] = test system: SK-OV-3
# [45] = test system: HL-60
# [46] = test system: COLO 205
# [47] = test system: DU-145
# [48] = test system: SNB-75
# [49] = test system: MDA-MB-435
# [50] = test system: SW-620
# [51] = test system: HCC 2998
# [52] = test system: SK-MEL-28
# [53] = test system: U-251
# [54] = test system: K562
# [55] = test system: SR
# [56] = test system: OVCAR-3
# [57] = test system: RPMI-8226
# [58] = test system: CCRF-CEM
compound,measurement,setting,value
C=CCCCN(C(=O)c1ccccc1)c1ccc(C(=O)OC)o1,GI50,[1],> 100 µM (inactive)
same,GI50,[2],> 100 µM (inactive)
same,GI50,[3],51.9 µM (inactive)
same,GI50,[4],> 100 µM (inactive)
same,GI50,[5],> 100 µM (inactive)
same,GI50,[6],> 100 µM (inactive)
same,GI50,[7],> 100 µM (inactive)
same,GI50,[8],> 100 µM (inactive)
same,GI50,[9],> 100 µM (inactive)
same,GI50,[10],> 100 µM (inactive)
same,GI50,[11],> 100 µM (inactive)
same,GI50,[12],78 µM (inactive)
same,GI50,[13],52.5 µM (inactive)
same,GI50,[14],> 100 µM (inactive)
same,GI50,[15],> 100 µM (inactive)
same,GI50,[16],> 100 µM (inactive)
same,GI50,[17],> 100 µM (inactive)
same,GI50,[18],> 100 µM (inactive)
same,GI50,[19],> 100 µM (inactive)
same,GI50,[20],> 100 µM (inactive)
same,GI50,[21],91.4 µM (inactive)
same,GI50,[22],> 100 µM (inactive)
same,GI50,[23],> 100 µM (inactive)
same,GI50,[24],> 100 µM (inactive)
same,GI50,[25],34 µM (inactive)
same,GI50,[26],> 100 µM (inactive)
same,GI50,[27],> 100 µM (inactive)
same,GI50,[28],> 100 µM (inactive)
same,GI50,[29],> 100 µM (inactive)
same,GI50,[30],> 100 µM (inactive)
same,GI50,[31],> 100 µM (inactive)
same,GI50,[32],> 100 µM (inactive)
same,GI50,[33],95.1 µM (inactive)
same,GI50,[34],> 100 µM (inactive)
same,GI50,[35],> 100 µM (inactive)
same,GI50,[36],> 100 µM (inactive)
same,GI50,[37],83.8 µM (inactive)
same,GI50,[38],> 100 µM (inactive)
same,GI50,[39],64.3 µM (inactive)
same,GI50,[40],31 µM (inactive)
same,GI50,[41],> 100 µM (inactive)
same,GI50,[42],> 100 µM (inactive)
same,GI50,[43],> 100 µM
same,GI50,[44],> 100 µM (inactive)
same,GI50,[45],19.3 µM (inactive)
same,GI50,[46],81.1 µM (inactive)
same,GI50,[47],> 100 µM (inactive)
same,GI50,[48],> 100 µM (inactive)
CSc1ccc(C(=O)C(=O)c2ccc(SC)s2)s1,GI50,[1],3.46 µM (inactive)
same,GI50,[49],4.34 µM (inactive)
same,GI50,[2],> 10 µM (inactive)
same,GI50,[3],4.6 µM (inactive)
same,GI50,[4],> 10 µM (inactive)
same,GI50,[50],> 10 µM (inactive)
same,GI50,[5],> 10 µM (inactive)
same,GI50,[6],> 10 µM (inactive)
same,GI50,[7],> 10 µM (inactive)
same,GI50,[51],> 10 µM (inactive)
same,GI50,[8],> 10 µM (inactive)
same,GI50,[52],> 10 µM (inactive)
same,GI50,[11],5.58 µM (inactive)
same,GI50,[12],> 10 µM (inactive)
same,GI50,[13],8.45 µM (inactive)
same,GI50,[14],> 10 µM (inactive)
same,GI50,[15],> 10 µM (inactive)
same,GI50,[16],> 10 µM (inactive)
same,GI50,[17],> 10 µM (inactive)
same,GI50,[18],> 10 µM (inactive)
same,GI50,[19],7.24 µM (inactive)
same,GI50,[20],> 10 µM (inactive)
same,GI50,[21],2.51 µM (inactive)
same,GI50,[22],> 10 µM (inactive)
same,GI50,[53],> 10 µM (inactive)
same,GI50,[23],> 10 µM (inactive)
same,GI50,[24],> 10 µM (inactive)
same,GI50,[25],> 10 µM (inactive)
same,GI50,[26],3.93 µM (inactive)
same,GI50,[27],> 10 µM (inactive)
same,GI50,[28],> 10 µM (inactive)
same,GI50,[29],> 10 µM (inactive)
same,GI50,[30],> 10 µM (inactive)
same,GI50,[31],> 10 µM (inactive)
same,GI50,[32],> 10 µM (inactive)
same,GI50,[33],> 10 µM (inactive)
same,GI50,[34],> 10 µM (inactive)
same,GI50,[35],4.85 µM (inactive)
same,GI50,[54],6.32 µM (inactive)
same,GI50,[55],3.92 µM (inactive)
same,GI50,[56],> 10 µM (inactive)
same,GI50,[36],6.64 µM (inactive)
same,GI50,[37],> 10 µM (inactive)
same,GI50,[57],4.86 µM (inactive)
same,GI50,[38],> 10 µM (inactive)
same,GI50,[39],> 10 µM (inactive)
same,GI50,[40],> 10 µM (inactive)
same,GI50,[41],> 10 µM (inactive)
same,GI50,[42],> 10 µM (inactive)
same,GI50,[43],> 10 µM
same,GI50,[44],> 10 µM (inactive)
same,GI50,[45],3.43 µM (inactive)
same,GI50,[46],> 10 µM (inactive)
same,GI50,[58],3.15 µM (inactive)
same,GI50,[47],> 10 µM (inactive)
same,GI50,[48],> 10 µM (inactive)
CC1(C)[N+]([O-])=[N+]([O-])C1(Br)c1ccccc1 (stereo not given),GI50,[1],> 100 µM (inactive)
same,GI50,[49],> 100 µM (inactive)
same,GI50,[2],> 100 µM (inactive)
same,GI50,[3],> 100 µM (inactive)
same,GI50,[4],> 100 µM (inactive)
same,GI50,[50],> 100 µM (inactive)
same,GI50,[5],> 100 µM (inactive)
same,GI50,[6],> 100 µM (inactive)
same,GI50,[7],39.3 µM (inactive)
same,GI50,[51],> 100 µM (inactive)
same,GI50,[8],59.6 µM (inactive)
same,GI50,[9],> 100 µM (inactive)
same,GI50,[52],> 100 µM (inactive)
same,GI50,[11],72.9 µM (inactive)
same,GI50,[12],> 100 µM (inactive)
same,GI50,[13],43.9 µM (inactive)
same,GI50,[14],> 100 µM (inactive)
same,GI50,[15],28.8 µM (inactive)
same,GI50,[16],80.9 µM (inactive)
same,GI50,[17],> 100 µM (inactive)
same,GI50,[18],> 100 µM (inactive)
same,GI50,[19],82.2 µM (inactive)
same,GI50,[20],> 100 µM (inactive)
same,GI50,[21],45.4 µM (inactive)
same,GI50,[22],> 100 µM (inactive)
same,GI50,[53],> 100 µM (inactive)
same,GI50,[23],49.2 µM (inactive)
same,GI50,[24],> 100 µM (inactive)
same,GI50,[25],> 100 µM (inactive)
same,GI50,[26],> 100 µM (inactive)
same,GI50,[27],68.2 µM (inactive)
same,GI50,[28],> 100 µM (inactive)
same,GI50,[29],48.1 µM (inactive)
same,GI50,[30],65.3 µM (inactive)
same,GI50,[31],> 100 µM (inactive)
same,GI50,[32],> 100 µM (inactive)
same,GI50,[33],89.1 µM (inactive)
same,GI50,[34],25.8 µM (inactive)
same,GI50,[35],> 100 µM (inactive)
same,GI50,[54],85.7 µM (inactive)
same,GI50,[55],43.5 µM (inactive)
same,GI50,[56],39.2 µM (inactive)
same,GI50,[36],68.9 µM (inactive)
same,GI50,[37],> 100 µM (inactive)
same,GI50,[57],42.7 µM (inactive)
same,GI50,[38],> 100 µM (inactive)
same,GI50,[40],> 100 µM (inactive)
same,GI50,[41],> 100 µM (inactive)
same,GI50,[42],54.8 µM (inactive)
same,GI50,[43],64.6 µM
same,GI50,[44],> 100 µM (inactive)
same,GI50,[45],33 µM (inactive)
same,GI50,[46],> 100 µM (inactive)
same,GI50,[58],39.9 µM (inactive)
same,GI50,[47],79.1 µM (inactive)
same,GI50,[48],> 100 µM (inactive)
